A short description of data set [1]: Small angle X-ray scattering (SAXS) of plasmid DNA-gemini surfactant-DOPE complexes. In kind it is physicochemical. Conditions: for d-spacing of main scattering peak / phase / morphology of lipid bilayers from scattering pattern (in words) / d-spacing of adjacent DNA molecules: plasmid DNA-gemini surfactant-DOPE complexes; for d-spacing of adjacent DNA molecules: weak peaks at q=0.172 Å^−1; for scattering peak position q, DNA: scattering from adjacent DNA molecules. As for the experimental part:
SAXS measurements were carried out at beamline X21 at the National Synchrotron Light Source at Brookhaven National Laboratory. Beamline X21 is based on a wiggler source, with a helium gas-cooled Si(111) monochromator selecting the photon energy. The X-ray beam is focused by a toroidal mirror into the experimental station. Three pairs of precision slits, positioned at 4 m, 1 m, and 5 cm upstream of the sample, define the beam. The scattering pattern is recorded using a 13 cm Mar CCD detector (Mar USA, Evanston, Ill.) located 1.26 m (calibrated with the scattering pattern of silver behenate) downstream of the sample. The measurements were performed with 12 KeV x-rays and the data covered a q-range from 0.008 Å^−1 to 0.375 Å^−1. All beam paths are under vacuum, except at the sample position, where the sample is in air, and kapton windows terminate the vacuum beam paths. Samples were loaded into 1.5 mm capillaries (Charles Supper #15-BG, Natick Mass.) and data recorded at room temperature. All spectra were processed to remove background contributions by subtracting the scattering profile obtained for a water-filled capillary. Peak fitting was carried out using the open-sources software package “fityk” (available at http://www.unipress.waw.pl/fityk/; last accessed on Jul. 5, 2007) using multiple Gaussian functions.
Solutions for SAXS analysis were prepared by addition of appropriate amounts of stock surfactant, DNA, and DOPE solutions, followed by sonication (to ensure complete mixing) where appropriate. The pGTmCMV.IFN-GFP plasmid DNA was used in the SAXS studies. The final concentrations of DNA and DOPE were 0.075 mM (50 μg/mL) and 1.00 mM (0.75 mg/mL), respectively. The concentration of gemini surfactant was adjusted as needed to obtain the desired 1:10 DNA:surfactant charge ratio. Preliminary x-ray scattering studies indicated these concentrations to be too dilute to give good scattering signals; as a result, the samples were concentrated 5× by evaporation.

The conditions of data set [2]: from reference [24]; cited from earlier work.
The nature of data set [3]: Average membrane charge density calculation for plasmid DNA-gemini surfactant-DOPE nanoparticles. Conditions: calculated from head group areas. In kind it is physicochemical.
Data set [4] deals with COS-7 African Green monkey kidney fibroblast cells. Description: Transfection assay (luciferase production after transfection with plasmid DNA-gemini surfactant complexes). In kind it is cell-based. Conditions: PGL complexes, with DOPE added. On the procedure:
COS-7 African Green monkey kidney fibroblast cells (ATCC CRL1651) were prepared for transfection in antibiotic and 10% fetal bovine serum supplemented minimal Eagle's medium (MEM). The day before transfection, 5×10^4 cells/well were seeded in 24-well plates (Greiner Labortechnik GmbH, Germany). The supplemented MEM was changed to MEM one hour prior to transfection.
The pMASIA.Luc plasmid DNA was used at a concentration of 0.2 μg/well for transfection. The transfection mixtures were prepared as follows: 0.2 μg of plasmid DNA was mixed with aliquots of gemini surfactant solution to obtain a plasmid DNA:gemini surfactant charge ratio of 1:10 and incubated at room temperature for 15 minutes. To this mixture, 25 μL of DOPE liposomes were added. The transfection mixtures were incubated for 30 minutes at room temperature prior to transfection and added to the cells, dropwise. The plates were incubated for 5 hours at 37° C. in a CO2 incubator. Dc-Chol (30-[N—(N′,N′-Dimethylaminoethane)-carbamoyl]cholesterol) was used for comparison and, as a positive control, cells were also transfected with Lipofectamine Plus™ Reagent (Invitrogen Life Technologies, Carlsbad, Calif.), according to the manufacturer's protocol, with 0.2 μg of plasmid DNA per well.
Luciferase production was quantified using the Promega Steady-Glo™ luciferase assay system. Luminescence was monitored using a Turner Biosystems (Sunnyvale, Calif., USA) Reporter microplate luminometer. Statistical analysis was performed using ANOVA and Tukey's multiple comparison test. […] Equal variances were tested using Bartlett's test, and normality by the D'Agostino & Pearson omnibus normality test.

The test system of another data set is cultured cells. Description: Viability of cells following transfection. It is filed as cell-based. Conditions: after transfection with plasmid DNA-gemini surfactant-DOPE or Lipofectamine Plus; relative to controls (no treatment or plasmid DNA alone). On the procedure:
Ideal transfection reagents are minimally toxic and/or disruptive to cells. Accordingly, the N-substituted surfactants were tested for toxicity in cultured cells. The viability of cells following transfection with either plasmid DNA-gemini surfactant-DOPE or Lipofectamine Plus are shown in FIG. 3. The aza-substituted surfactants 12-5N-12, 12-8N-12, and 12-7N-12 had similar toxicity compared to the Lipofectamine Plus reagent, with cell viability around 80% of the controls (i.e., no treatment or plasmid DNA alone; p>0.05).

The subject of data set [5] is COS-7 African Green monkey kidney fibroblast cells. Description: Transfection assay (luciferase production after transfection with plasmid DNA-gemini surfactant complexes). Conditions: PG complexes, complexed with DNA in the absence of helper lipid (DOPE). In kind it is cell-based.
The nature of data set [6]: Size (hydrodynamic radius) and zeta potential as a function of pH. It is filed as physicochemical. Particulars: PGL complexes. On the procedure:
Determinations of size (hydrodynamic radius, RH) and zeta potential (ζ) as a function of pH were carried out using a Malvern Instruments (Worcestershire, UK) ZetaSizer NanoZs with MPT-2 auto-titrator attachment. 10 mL of the desired sample was placed in the titration cell of the auto-titrator and samples were titrated (in 0.2-0.5 pH unit increments) with 0.1 M NaOH and 0.1 M HCl over the desired pH range. Size and zeta potential measurement were made in triplicate at each pH point, and the reported values represent the average±standard error. pH titrations of aqueous gemini surfactant solutions were made at a surfactant concentration of 2.00 mM, above the critical micelle concentration in all cases.
Solutions for size, zeta potential, and circular dichrosicm (CD) measurements were prepared, in larger volumes, as described above for the transfection experiments using a pGTmCMV.IFN-GFP plasmid DNA, previously constructed in our lab. Solutions containing only surfactant and plasmid DNA were prepared by addition of an aliquot of stock plasmid DNA to the gemini surfactant solution to a charge ratio of 1:10 (DNA:surfactant).

A further data set deals with DNA. Briefly: Binding constant between py-s-12 surfactants and DNA from changes in the UV spectrum of the pyrene moiety. Details: species or system salmon. Particulars: estimated from changes in the UV spectrum of the pyrene moiety. An excerpt:
Similar to a series of peptide substituted pyrene compounds described in [51], the S1-S0, S2-S0, and S3-S0 transitions have lambdamax values of 376, 343, and 276 nm, respectively. The broadening of the absorbance bands of pyrene, the red shift in the absorbance band, and the observed hyperchromism in the presence of DNA are evidence of complexed pyrene compounds Quantitative estimates of the binding constants between py-s-12 surfactants and DNA were obtained by monitoring changes in the UV spectrum of the pyrene moiety. The binding constant for py-3-12 and DNA was estimated to be 5.9×10^3 L mol^−1 and that of py-6-12 was 1.9×10^4 L mol^−1. The stronger binding of py-6-12 to DNA implied that the distance between the cationic head groups is more suitable to electrostatically bind to DNA.
Pyrene, 6-bromohexanoyl chloride, anhydrous aluminum chloride, triethylsilane, trifluoroacetatic acid, N,N,N′,N′-tetramethylpropanediamine, N,N,N′,N′-tetramethylhexanediamine, and 1-bromododecane were purchased from Aldrich Inc. All solutions were prepared using analytical-grade water obtained from a Millipore Milli-Q filtration system. The sodium salt of double-stranded (ds) salmon sperm DNA (about 2 kbp, as stated by the manufacturer, Sigma) was used as received. […]

[7] abbreviates: plasmid DNA-gemini surfactant-DOPE systems.

We go through 8 molecules from patent publication US20090054368A1, “Substituted gemini surfactant compounds” (University of Saskatchewan, priority 2007, published 2009).

“And” between values parts separate entries of the source, which are not always exact repeats. Equal entries are not always repeated. “Also recorded” adds a separate entry of the source.

As to `CCCCCCCCCCCC[N+](C)(C)CC[N+](C)(C)CCCCCCCCCCCC.[Br-].[Br-]` [12-2-12, reference compound], in data set [1], the “d-spacing of main scattering peak” value is 61.7 Å, the “phase / morphology of lipid bilayers from scattering pattern (in words)” value (shortened to “phase / morphology of lipid bilayers”) is on record as “lamellar (L) phase” and the “d-spacing of adjacent DNA molecules” value amounted to 36.5 Å. For the same molecule, in data set [1] (setting [7]), the “scattering peak position q, lamellar (L) phase” value was 0.203 (L) Å^−1 and 0.102 Å^−1; the “scattering peak position q, DNA” value came to 0.172 Å^−1. Moreover, the “Head group area a0” value in data set [2] is listed as 0.89 ± 0.05 nm^2/molecule. Also, the “membrane charge density σM” value in data set [3] is given as 1.43 ×10^−2 e/Å^2.

Turning to `CCCCCCCCCCCC[N+](C)(C)CC(O)C(O)C[N+](C)(C)CCCCCCCCCCCC.[Br-].[Br-]` (centres unmarked) [12-4(OH)2-12], in data set [1], the “phase / morphology of lipid bilayers” value is “mixed lamellar, hexagonal, and cubic phases”. In addition, the “transfection efficiency (in words)” value in data set [4] is “enhanced transfection efficiency compared to 12-3-12; also recorded: higher levels of transfection efficiency compared to the non-substituted gemini surfactant 12-3-12”.

In the case of `CCCCCCCCCCCC[N+](C)(C)CCN(C)CC[N+](C)(C)CCCCCCCCCCCC` [12-5N-12], in the data set with cultured cells, the cell viability entry was “around 80%”. Moreover, in data set [5], the “transfection efficiency (in words)” value is given as “similarly low transfection efficiency compared to 12-3-12”. For the same molecule, in data set [1], the “d-spacing of main scattering peak” value is recorded as 58.6 Å, the “phase / morphology of lipid bilayers” value is “lamellar (L) phase” and the “d-spacing of adjacent DNA molecules” value was 36.5 Å. In data set [1] (setting [7]), the “scattering peak position q, lamellar (L) phase” value was 0.107 Å^−1 and 0.207 (L) Å^−1; the “scattering peak position q, DNA” value is 0.172 Å^−1 and 0.173 Å^−1. Moreover, the “Head group area a0” value in data set [2] is listed as 1.30 ± 0.03 nm^2/molecule. In addition, the “membrane charge density σM” value in data set [3] is listed as 1.05 ×10^−2 e/Å^2. The “transfection efficiency (in words)” value in data set [4] is “enhanced transfection efficiency compared to the un-substituted surfactant, 12-3-12; also recorded: higher levels of transfection efficiency compared to the non-substituted gemini surfactant 12-3-12”. In data set [4] (listed as 125N-12), the “transfection efficiency (in words)” value is “less efficient in DNA transfection”.

Take `CCCCCCCCCCCC[N+](C)(C)CCCN(C)CCC[N+](C)(C)CCCCCCCCCCCC.[Br-].[Br-]` [12-7N-12, 1,9-bis(dodecyl)-1,1,5,9,9-pentamethyl-5-aza-1,9,-nonanediammonium dibromide]: the cell viability entry in the data set with cultured cells was “around 80%”. In addition, the “transfection efficiency (in words)” value is on record as “similarly low transfection efficiency compared to 12-3-12” in data set [5] and “enhanced transfection efficiency compared to the un-substituted surfactant, 12-3-12; also recorded: higher levels of transfection efficiency compared to the non-substituted gemini surfactant 12-3-12; also recorded: most efficient aza-substituted surfactant; also recorded: highest” in data set [4]. Besides, in data set [1], the “d-spacing of main scattering peak” value was found to be 59.6 Å. In data set [2], the “Head group area a0” value is 2.06 ± 0.20 nm^2/molecule. Also, the “pH dependence of particle size (in words)” value in data set [6] is reported as “remained essentially unchanged”. Further, the “pH dependence of zeta potential (in words)” value in data set [6] is “increased as a function of decreasing pH”. The “membrane charge density σM” value in data set [3] is listed as 0.748 ×10^−2 e/Å^2.

Consider `CCCCCCCCCCCC[N+](C)(C)CCN(C)CCN(C)CC[N+](C)(C)CCCCCCCCCCCC` [12-8N-12], for which the cell viability entry in the data set with cultured cells is on record as “around 80%”. In addition, the “transfection efficiency (in words)” value in data set [5] was “similarly low transfection efficiency compared to 12-3-12”. For the same molecule, in data set [1], the “d-spacing of main scattering peak” value was 59.6 Å and the “phase / morphology of lipid bilayers” value was “lamellar structure”. Further, in data set [1] (setting [7]), the “scattering peak position q, lamellar (L) phase” value was 0.105 Å^−1 and 0.210 (L) Å^−1; the “scattering peak position q, no phase assigned” value is 0.119 Å^−1; the “scattering peak position q, DNA” value was 0.170 Å^−1 and 0.169 (DNA), Å^−1. The “Head group area a0” value in data set [2] was 1.95 ± 0.13 nm^2/molecule. Besides, the “membrane charge density σM” value in data set [3] is 0.780 ×10^−2 e/Å^2.

On to `CCCCCCCCCCCC[N+](C)(C)CCOCC[N+](C)(C)CCCCCCCCCCCC.[Br-].[Br-]` [12-E01-12], for which the “phase / morphology of lipid bilayers” value in data set [1] is “mixed lamellar, hexagonal, and cubic phases”. In data set [4], the “transfection efficiency (in words)” value is listed as “enhanced transfection efficiency compared to 12-3-12; also recorded: higher levels of transfection efficiency compared to the non-substituted gemini surfactant 12-3-12”.

`CCCCCCCCCCCC[N+](C)(C)CCC[N+](C)(C)CCCCCCc1ccc2ccc3cccc4ccc1c2c34.[Br-].[Br-]` [py-3-12, N1-dodecyl,N1,N1,N3,N3-tetramethyl-N3-(6-(pyren-6-yl)-hexyl)propane-1,3-diammonium dibromide]: the “binding constant with DNA” value with DNA was 5900 L/mol.

With `CCCCCCCCCCCC[N+](C)(C)CCCCCC[N+](C)(C)CCCCCCc1ccc2ccc3cccc4ccc1c2c34.[Br-].[Br-]` [py-6-12, N1-dodecyl,N1,N1,N6,N6-tetramethyl-N6-(6-(pyren-6-yl)-hexyl)hexane-1,6-diammonium dibromide], the “binding constant with DNA” value in the data set on DNA was 19000 L/mol.
